Measured values: US12569543B2, “Semaglutide in cardiovascular conditions” (Novo Nordisk A/S, priority 2016, dated 2026)

System: human subjects with type 2 diabetes
Assay: Long-term randomised, double-blind, placebo-controlled cardiovascular outcomes trial with semaglutide
[1] = Table 4, coronary and peripheral, semaglutide arms
[2] = Table 4, individual component of MACE, semaglutide arms
[3] = Table 4, individual component of MACE, semaglutide vs placebo, Cox model
[4] = Table 4, MACE incl. revascularisation, hospitalisation for UAP and heart failure, semaglutide arms
[5] = Table 4, semaglutide vs placebo, Cox model
[6] = Table 5, under first MACE (CV death, non-fatal MI, non-fatal stroke), semaglutide arms
[7] = Table 5, MACE = cardiovascular death, non-fatal MI, non-fatal stroke, all subjects, semaglutide arms
[8] = Table 5 subgroup BMI >30 kg/m^2, semaglutide arms
[9] = Table 5 subgroup BMI ≤30 kg/m^2, semaglutide arms
[10] = Table 5 subgroup Ethnic origin: Asian, semaglutide arms
[11] = Table 5 subgroup Ethnic origin: Black or African-American, semaglutide arms
[12] = Table 5 subgroup Ethnic origin: Other, semaglutide arms
[13] = Table 5 subgroup Ethnic origin: White, semaglutide arms
[14] = Table 5 subgroup Heart failure NYHA class I or no heart failure, semaglutide arms
[15] = Table 5 subgroup Heart failure NYHA class II or III, semaglutide arms
[16] = Table 5 subgroup Sex: Female, semaglutide arms
[17] = Table 5 subgroup Sex: Male, semaglutide arms

Description: A long-term randomised, double-blind, placebo-controlled, four-armed parallel-group, multicentre, multi-national, safety and efficacy trial was carried out to evaluate cardiovascular and other long-term outcomes with semaglutide in 3,297 human subjects with type 2 diabetes.
The subjects were randomised to receive once weekly treatment doses of 0.5 mg semaglutide, 1.0 mg semaglutide, or volume-matched placebo, as an add-on to their standard-of-care treatment, wherein administration started with an initial dose escalation step at 0.25 mg semaglutide once weekly for 4 weeks, and for the 1.0 mg semaglutide group an additional 4 week period at 0.5 mg semaglutide once weekly, or their volume-matched placebo, as shown in Table 1. Additional glucose-lowering medications were allowed to be added to the anti-diabetic regimen to maintain target glycaemic control at the discretion of investigator.
Semaglutide was administered in the form of an aqueous solution comprising semaglutide or placebo, both using a 3 ml disposable pen-injector. This pen-injector was identical for the semaglutide and placebo administrations. This aqueous solution contained 1.34 mg/ml semaglutide, 1.42 mg/ml disodium phosphate dihydrate, 14.0 mg/ml propylene glycol, 5.5 mg/ml phenol, at pH 7.40.
Injections were administered in the thigh, abdomen or upper arm, at any time of day irrespective of meals. The injections were administered on the same day of the week during the trial.
In this trial, “clinical evidence of cardiovascular disease” was present when the subject fulfilled at least one criterion selected from the group consisting of a) to h): • a) prior myocardial infarction, • b) prior stroke or transient ischaemic attack, • c) prior coronary, carotid or peripheral arterial revascularisation, • d) >50% stenosis on angiography or imaging of coronary, carotid or lower extremity arteries, • e) history of symptomatic coronary heart disease (documented by e.g. positive exercise stress test or any cardiac imaging or unstable angina with ECG changes), • f) asymptomatic cardiac ischemia (e.g. documented by positive nuclear imaging test or exercise test or stress echo or any cardiac imaging), • g) heart failure New York Heart Association (NYHA) class and • h) chronic renal impairment (documented (prior to screening) by estimated glomerular filtration rate (eGFR)<60 mL/min/1.73 m^2 per MDRD).
In this trial, “subclinical evidence of cardiovascular disease” was present when the subject fulfilled at least one criterion selected from the group consisting of i) to l): • i) persistent microalbuminuria (30-299 mg/g) or proteinuria, • j) hypertension and left ventricular hypertrophy by ECG or imaging, • k) left ventricular systolic or diastolic dysfunction by imaging, and • l) ankle/brachial index<0.9.
The results of this trial may be presented herein as a number or fraction of subjects experiencing an event. […] The term “hazard ratio” (also referred to as “HR”) as used herein means the instantaneous risk ratio of experiencing an event when administered semaglutide compared to placebo which are the two treatments in this trial. An upper limit of the 95% confidence interval (CI) for the HR of less than 1.00 means that the estimated treatment ratio between semaglutide and placebo with respect to the event of interest is statistically significant in favour of semaglutide on a 5% significance level.

With “N^6.26-{18-[N-(17-carboxy-heptadecanoyl)-L-γ-glutamyl]-10-oxo-3,6,12,15-tetraoxa-9,18-diazaoctadecanoyl}-[8-(2-amino-2-propanoic acid),34-L-arginine]human glucagon-like peptide 1(7-37) [Semaglutide]” the “Time to first non-fatal myocardial infarction (Kaplan-Meier plot)” value (FIG. 1, after a certain period of chronic treatment, vs placebo) was “particularly good effect”, the “Time to first revascularisation (Kaplan-Meier plot)” value (FIG. 2, after a certain period of chronic treatment, vs placebo) was “particularly good effect” and the “Revascularisation, N subjects with at least one event” value [1] was 83. The “Revascularisation, percentage of subjects with at least one event” value [1] was 5.0%, the “Revascularisation, hazard ratio” value (Table 4, coronary and peripheral, semaglutide vs placebo, Cox model) was 0.65 and the “Cardiovascular death, N subjects with event” value [2] was 44. For the same substance, the “Cardiovascular death, percentage of subjects with event” value [2] was 2.7%, the “Myocardial infarction, non-fatal, N subjects with at least one event” value [2] was 47 and the “Myocardial infarction, non-fatal, percentage of subjects with at least one event” value [2] was 2.9%. For the same substance, the “Stroke, non-fatal, N subjects with at least one event” value [2] was 27, the “Stroke, non-fatal, percentage of subjects with at least one event” value [2] was 1.6% and the “Cardiovascular death, hazard ratio” value [3] was 0.98. For the same substance, the “Myocardial infarction, non-fatal, hazard ratio” value [3] was 0.74, the “Stroke, non-fatal, hazard ratio” value [3] was 0.61 and the “Time to first MACE, hazard ratio” value (Table 4, MACE = CV death, non-fatal MI, non-fatal stroke, revascularisation, hospitalisation for UAP or heart failure, semaglutide vs placebo, Cox model) was 0.74. The “First MACE, N subjects experiencing at least one event” value [4] was 199, the “First MACE, percentage of subjects experiencing at least one event” value [4] was 12.1% and the “Coronary revascularisation, N subjects with at least one event” value (Table 4, semaglutide arms) was 70. The “Coronary revascularisation, percentage of subjects with at least one event” value (Table 4, semaglutide arms) was 4.2%, the “Hospitalisation for UAP, N subjects with at least one event” value (Table 4, semaglutide arms) was 22 and the “Hospitalisation for UAP, percentage of subjects with at least one event” value (Table 4, semaglutide arms) was 1.3%. For the same substance, the “Hospitalisation for heart failure, N subjects with at least one event” value (Table 4, semaglutide arms) was 59, the “Hospitalisation for heart failure, percentage of subjects with at least one event” value (Table 4, semaglutide arms) was 3.6% and the “Peripheral revascularisation, N subjects with at least one event” value (Table 4, semaglutide arms) was 16. For the same substance, the “Peripheral revascularisation, percentage of subjects with at least one event” value (Table 4, semaglutide arms) was 1.0%, the “Coronary revascularisation, hazard ratio” value [5] was 0.68 and the “Hospitalisation for UAP, hazard ratio” value [5] was 0.82. For the same substance, the “Hospitalisation for heart failure, hazard ratio” value [5] was 1.11, the “Peripheral revascularisation, hazard ratio” value [5] was 0.63 and the “Cardiovascular death, N subjects” value [6] was 37. The “Cardiovascular death, percentage of subjects” value [6] was 2.2%, the “Myocardial infarction, non-fatal, N subjects” value [6] was 46 and the “Myocardial infarction, non-fatal, percentage of subjects” value [6] was 2.8%. The “Stroke, non-fatal, N subjects” value [6] was 25, the “Stroke, non-fatal, percentage of subjects” value [6] was 1.5% and the “First MACE, N subjects experiencing at least one event” value [7] was 108. The “First MACE, percentage of subjects experiencing at least one event” value [7] was 6.6%, the “Time to first MACE, hazard ratio” value (Table 5, MACE = cardiovascular death, non-fatal MI, non-fatal stroke, all subjects, semaglutide vs placebo, Cox model) was 0.74 and the “Time to first MACE, hazard ratio” value (Table 5 subgroup BMI >30 kg/m^2, MACE = CV death, non-fatal MI, non-fatal stroke, vs placebo) was 0.84. The “First MACE, N subjects with at least one event” value [8] was 69, the “First MACE, percentage of subjects with at least one event” value [8] was 6.6% and the “Time to first MACE, hazard ratio” value (Table 5 subgroup BMI ≤30 kg/m^2, MACE = CV death, non-fatal MI, non-fatal stroke, vs placebo) was 0.58. For the same substance, the “First MACE, N subjects with at least one event” value [9] was 39, the “First MACE, percentage of subjects with at least one event” value [9] was 6.6% and the “Time to first MACE, hazard ratio” value (Table 5 subgroup Ethnic origin: Asian, MACE = CV death, non-fatal MI, non-fatal stroke, vs placebo) was 0.58. For the same substance, the “First MACE, N subjects with at least one event” value [10] was 2, the “First MACE, percentage of subjects with at least one event” value [10] was 5.7% and the “Time to first MACE, hazard ratio” value (Table 5 subgroup Ethnic origin: Black or African-American, MACE = CV death, non-fatal MI, non-fatal stroke, vs placebo) was 0.72. For the same substance, the “First MACE, N subjects with at least one event” value [11] was 5, the “First MACE, percentage of subjects with at least one event” value [11] was 4.6% and the “Time to first MACE, hazard ratio” value (Table 5 subgroup Ethnic origin: Other, MACE = CV death, non-fatal MI, non-fatal stroke, vs placebo) was 0.46. For the same substance, the “First MACE, N subjects with at least one event” value [12] was 93, the “First MACE, percentage of subjects with at least one event” value [12] was 6.7% and the “Time to first MACE, hazard ratio” value (Table 5 subgroup Ethnic origin: White, MACE = CV death, non-fatal MI, non-fatal stroke, vs placebo) was 0.76. The “First MACE, N subjects with at least one event” value [13] was 8, the “First MACE, percentage of subjects with at least one event” value [13] was 6.6% and the “Time to first MACE, hazard ratio” value (Table 5 subgroup Heart failure NYHA class I or no heart failure, MACE = CV death, non-fatal MI, non-fatal stroke, vs placebo) was 0.64. For the same substance, the “First MACE, N subjects with at least one event” value [14] was 73, the “First MACE, percentage of subjects with at least one event” value [14] was 5.4% and the “Time to first MACE, hazard ratio” value (Table 5 subgroup Heart failure NYHA class II or III, MACE = CV death, non-fatal MI, non-fatal stroke, vs placebo) was 1.03. For the same substance, the “First MACE, N subjects with at least one event” value [15] was 35, the “First MACE, percentage of subjects with at least one event” value [15] was 12.3% and the “Time to first MACE, hazard ratio” value (Table 5 subgroup Sex: Female, MACE = CV death, non-fatal MI, non-fatal stroke, vs placebo) was 0.84. For the same substance, the “First MACE, N subjects with at least one event” value [16] was 35, the “First MACE, percentage of subjects with at least one event” value [16] was 5.5% and the “Time to first MACE, hazard ratio” value (Table 5 subgroup Sex: Male, MACE = CV death, non-fatal MI, non-fatal stroke, vs placebo) was 0.68. The “First MACE, N subjects with at least one event” value [17] was 73, the “First MACE, percentage of subjects with at least one event” value [17] was 7.2% and the “First MACE, N subjects with at least one event” value (Table 6, 0.5 mg semaglutide once weekly arm) was 59. For the same substance, the “Time to first MACE, hazard ratio” value (Table 6, 0.5 mg semaglutide once weekly arm vs its placebo, MACE = CV death, non-fatal MI, non-fatal stroke) was 0.77, the “First MACE, N subjects with at least one event” value (Table 6, 1.0 mg semaglutide once weekly arm) was 49 and the “Time to first MACE, hazard ratio” value (Table 6, 1.0 mg semaglutide once weekly arm vs its placebo, MACE = CV death, non-fatal MI, non-fatal stroke) was 0.71. The “Effect on reducing cardiovascular disease” value (overall conclusion of the trial, more pronounced in some subgroups) was “surprisingly good effect on reducing cardiovascular disease”.
